Columns and labels:
[1] = biological target: T1, GST-tagged KRAS-G12D (2-169) (Homo sapiens, UniProt P01116, G12D); test: Nucleotide exchange assay (NEA), SOS-mediated, HTRF, KRAS G12D; format: biochemical; conditions: Table 4; IC50 extracted at 30 min
T1 construct: GST-tagged KRAS-G12D (2-169, Reaction Biology, MSC-11-539); purchased Reaction Biology MSC-11-539 (KRAS G12D); MSC-11-502 (SOS1cat)
Method in brief: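 GST-KRAS-G12D (2-169, 5 nM final) with Tb-anti-GST donor was preincubated with compound 1 h at RT (pH 7.3 HEPES buffer, MgCl2, DTT), then SOScat (564-1049, 20 nM) and GTP-DY-647P1 (150 nM) were added. HTRF was read at RT; % inhibition vs DMSO/no-SOS blank, 4-parameter IC50 taken at 30 min.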

[2] = tested on: AGS cells (KRAS G12D), phospho-ERK; test: pERK In Cell Western (ICW) assay (Method B), AGS cells; format: cell-based; conditions: Homo sapiens, Table 4, pERK, 3 hours, read-out: ICW-AGS
Protocol: pERK ICW is a high throughput screening assay to evaluate the cellular potency of mutant KRAS small molecule inhibitors. KRAS mutant cell lines AGS and GP2D (KRAS^G12D) were purchased from ATCC and maintained respectively in RPMI and DMEM medium supplemented with 10% fetal bovine serum and Penicillin/Streptomycin.
Cells grown in exponential phase were trypsinized, resuspended in fresh media, and viable cells were counted using a cell counter with Trypan Blue (BioRad TC20). Cells were seeded into 384-well plate (Greiner 781091) at density of 5,000 cells/well for AGS and 10,000 cells/well for GP2D and allowed to grow overnight in a 37° C. CO2 incubator. The next day, compounds were dispensed into wells with a ½ log, 10-point serial dilution and top concentration of […] using Tecan D300e dispenser and incubated for 3 hours in a 37° C. CO2 incubator. Cells were then fixed with paraformaldehyde (Electron Microscopy Sciences, 15710, 4% final concentration) for 30 min, permeabilized with wash buffer (1×PBS+0.1% Triton X-100) for 30 min and blocked with Odyssey blocking buffer (Li—COR 927-70001) for 1 hour, all at room temperature (RT). Phospho-ERK antibody (CST 4370L) was diluted 1:500 in Odyssey blocking+0.2% Tween 20 and incubated with cells overnight at 4° C. The next day, plates were washed 5× with wash buffer, incubated with IRDye 800 CW, Goat anti-Rabbit secondary antibody (Li—COR 926-32211, 1:500) and DRAQ5 (CST 4084L, 1:5,000) diluted in Odyssey blocking+0.2% Tween 20 for 1 hour, washed 5×, and imaged on an Odyssey CLx imaging system.
For data analysis, signal intensities from 800 (phosphor-ERK) and 700 (DRAQ5) channels were extracted, and phospho-ERK signals were normalized to DRAQ5 signals for each well and percent of DMSO control values were computed. Data were then imported into Graphpad Prism to compute half-maximal inhibitory concentrations (IC50) using a 4-parameter variable slope model. Z-factor for each plate was computed from signals derived from wells treated with either DMSO or […] of Trametinib. AGS pERK ICW (Method B) IC50 (uM) values of selected compounds are depicted in Table 2 with compounds having a value 0.001 uM to 0.01 uM as ++++; >0.01 uM to 0.1 uM as +++; >0.1 uM to 1 uM as ++; 1 uM to 10 uM as + and >10 uM as NA.

T1 sequence (P01116 2-169 isoform P01116-2 G12D): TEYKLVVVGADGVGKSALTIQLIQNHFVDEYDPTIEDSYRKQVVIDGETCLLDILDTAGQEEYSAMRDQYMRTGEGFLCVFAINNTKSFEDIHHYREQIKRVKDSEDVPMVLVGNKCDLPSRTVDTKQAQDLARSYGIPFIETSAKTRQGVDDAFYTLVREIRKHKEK

Structure (SMILES) | IC50 [1] | IC50 [2]
Cc1noc(-c2cc3n(n2)CCCN(c2nc(OC[C@@]45CCCN4C[C@H](F)C5)nc(N4CC5(CCc6sc(N)c(C#N)c65)C4)c2C#N)C3)n1 [Compound 16, 2-amino-1′-[5-cyano-6-[2-(3-methyl-1,2,4-oxadiazol-5-yl)-4,6,7,8-tetrahydropyrazolo[1,5-a][1,4]diazepin-5-yl]-2-[[(2R,8S)-2-fluoro-1,2,3,5,6,7-hexahydropyrrolizin-8-yl]methoxy]pyrimidin-4-yl]spiro[5,6-dihydrocyclopenta[b]thiophene-4,3′-azetidine]-3-carbonitrile] | < 10 nM | 100 to 1000 nM
Cc1noc(-c2nn3c(c2Cl)CN(c2nc(OC[C@@]45CCCN4C[C@H](F)C5)nc(N4CC5(CCc6sc(N)c(C#N)c65)C4)c2C#N)CCC3)n1 [Compound 17, 2-amino-1′-[6-[3-chloro-2-(3-methyl-1,2,4-oxadiazol-5-yl)-4,6,7,8-tetrahydropyrazolo[1,5-a][1,4]diazepin-5-yl]-5-cyano-2-[[(2R,8S)-2-fluoro-1,2,3,5,6,7-hexahydropyrrolizin-8-yl]methoxy]pyrimidin-4-yl]spiro[5,6-dihydrocyclopenta[b]thiophene-4,3′-azetidine]-3-carbonitrile] | < 10 nM | 100 to 1000 nM
CN(C)C(=O)c1nn2c(c1Cl)CN(c1nc(OCC34CCCN3CCC4)nc(N3CC4(CCc5sc(N)c(C#N)c54)C3)c1C#N)CCC2 [Compound 18, 5-[6-(2-amino-3-cyano-spiro[5,6-dihydrocyclopenta[b]thiophene-4,3′-azetidine]-1′-yl)-5-cyano-2-(1,2,3,5,6,7-hexahydropyrrolizin-8-ylmethoxy)pyrimidin-4-yl]-3-chloro-N,N-dimethyl-4,6,7,8-tetrahydropyrazolo[1,5-a][1,4]diazepine-2-carboxamide] | < 10 nM | 100 to 1000 nM
N#Cc1c(N2CCCCCC2)nc(OC[C@@]23CCCN2C[C@H](F)C3)nc1N1CC2(CCc3sc(N)c(C#N)c32)C1 [Compound 19, 2-amino-1′-[6-(azepan-1-yl)-5-cyano-2-[[(2R)-2-fluoro-1,2,3,5,6,7-hexahydropyrrolizin-8-yl]methoxy]pyrimidin-4-yl]spiro[5,6-dihydrocyclopenta[b]thiophene-4,3′-azetidine]-3-carbonitrile] | 10 to 100 nM | 1000 to 10000 nM
CS(=O)(=O)c1cc2n(n1)CCCN(c1nc(OC[C@@]34CCCN3C[C@H](F)C4)nc(N3CC4(CCc5sc(N)c(C#N)c54)C3)c1C#N)C2 [Compound 21, 2-amino-1′-[5-cyano-2-[[(2R,8S)-2-fluoro-1,2,3,5,6,7-hexahydropyrrolizin-8-yl]methoxy]-6-(2-methylsulfonyl-4,6,7,8-tetrahydropyrazolo[1,5-a][1,4]diazepin-5-yl)pyrimidin-4-yl]spiro[5,6-dihydrocyclopenta[b]thiophene-4,3′-azetidine]-3-carbonitrile] | < 10 nM | 100 to 1000 nM
N#Cc1c(N)sc2c1C1(CC2)CN(c2nc(OCC3(CN4CCOCC4)CC3)nc(N3C[C@H]4CC[C@@H](C3)N4)c2F)C1 [Compound 22, 2-amino-1′-[6-(3,8-diazabicyclo[3.2.1]octan-3-yl)-5-fluoro-2-[[1-(morpholinomethyl)cyclopropyl]methoxy]pyrimidin-4-yl]spiro[5,6-dihydrocyclopenta[b]thiophene-4,3′-azetidine]-3-carbonitrile] | < 10 nM | 10 to 100 nM
N#Cc1c(N2C[C@H]3CC[C@@H](C2)N3)nc(OCC2(CN3CCOCC3)CC2)nc1N1CC2(CCc3sc(N)nc32)C1 [Compound 23, 4-(2-aminospiro[5,6-dihydrocyclopenta[d]thiazole-4,3′-azetidine]-1′-yl)-2-[[1-(morpholinomethyl)cyclopropyl]methoxy]-6-[(1R,5S)-3,8-diazabicyclo[3.2.1]octan-3-yl]pyrimidine-5-carbonitrile] | < 10 nM | 100 to 1000 nM
N#Cc1cc2n(n1)CCCN(c1nc(OC[C@@]34CCCN3C[C@H](F)C4)nc(N3CC4(CCc5sc(N)c(C#N)c54)C3)c1C#N)C2 [Compound 24, 2-amino-1′-[5-cyano-6-(2-cyano-4,6,7,8-tetrahydropyrazolo[1,5-a][1,4]diazepin-5-yl)-2-[[(2R,8S)-2-fluoro-1,2,3,5,6,7-hexahydropyrrolizin-8-yl]methoxy]pyrimidin-4-yl]spiro[5,6-dihydrocyclopenta[b]thiophene-4,3′-azetidine]-3-carbonitrile] | 10 to 100 nM | 100 to 1000 nM
N#Cc1c(N2C[C@H]3CC[C@@H](C2)N3)nc(OC[C@@]23CCCN2C[C@H](F)C3)nc1N1CC2(CCc3sc(N)c(C#N)c32)C1 [Compound 25, 2-amino-1′-[5-cyano-6-(3,8-diazabicyclo[3.2.1]octan-3-yl)-2-[[(2R,8S)-2-fluoro-1,2,3,5,6,7-hexahydropyrrolizin-8-yl]methoxy]pyrimidin-4-yl]spiro[5,6-dihydrocyclopenta[b]thiophene-4,3′-azetidine]-3-carbonitrile] | < 10 nM | 10 to 100 nM
CN(C)CC(F)(F)COc1nc(N2C[C@H]3CC[C@@H](C2)N3)c(C#N)c(N2CC3(CCc4sc(N)c(C#N)c43)C2)n1 [Compound 26, 2-amino-1′-[5-cyano-6-(3,8-diazabicyclo[3.2.1]octan-3-yl)-2-[3-(dimethylamino)-2,2-difluoro-propoxy]pyrimidin-4-yl]spiro[5,6-dihydrocyclopenta[b]thiophene-4,3′-azetidine]-3-carbonitrile] | < 10 nM | 1000 to 10000 nM
Cn1c(-c2cc3n(n2)CCCN(c2nc(OC[C@@]45CCCN4C[C@H](F)C5)nc(N4CC5(CCc6sc(N)c(C#N)c65)C4)c2C#N)C3)nc2ccccc21 [Compound 29, 2-amino-1′-[5-cyano-6-[2-(1-methylbenzimidazol-2-yl)-4,6,7,8-tetrahydropyrazolo[1,5-a][1,4]diazepin-5-yl]-2-[[(2R,8S)-2-fluoro-1,2,3,5,6,7-hexahydropyrrolizin-8-yl]methoxy]pyrimidin-4-yl]spiro[5,6-dihydrocyclopenta[b]thiophene-4,3′-azetidine]-3-carbonitrile] | 10 to 100 nM | 1000 to 10000 nM
Cn1c(-c2nn3c(c2Cl)CN(c2nc(OC[C@@]45CCCN4C[C@H](F)C5)nc(N4CC5(CCc6sc(N)c(C#N)c65)C4)c2C#N)CCC3)nc2ccccc21 [Compound 30] | < 10 nM | 100 to 1000 nM
Cn1c(-c2nn3c(c2Cl)CN(c2nc(OC[C@@]45CCCN4C[C@H](F)C5)nc(N4CC5(CCc6sc(N)c(C#N)c65)C4)c2C#N)CCC3)nc2c(F)cccc21 [Compound 32, 2-amino-1′-[6-[3-chloro-2-(4-fluoro-1-methyl-benzimidazol-2-yl)-4,6,7,8-tetrahydropyrazolo[1,5-a][1,4]diazepin-5-yl]-5-cyano-2-[[(2R,8S)-2-fluoro-1,2,3,5,6,7-hexahydropyrrolizin-8-yl]methoxy]pyrimidin-4-yl]spiro[5,6-dihydrocyclopenta[b]thiophene-4,3′-azetidine]-3-carbonitrile] | < 10 nM | 100 to 1000 nM
N#Cc1c(N2CCCC(C#N)CC2)nc(OC[C@@]23CCCN2C[C@H](F)C3)nc1N1CC2(CCc3sc(N)c(C#N)c32)C1 (stereo partly drawn) [Compound 33, 2-amino-1′-[5-cyano-6-(4-cyanoazepan-1-yl)-2-[[(2R,8S)-2-fluoro-1,2,3,5,6,7-hexahydropyrrolizin-8-yl]methoxy]pyrimidin-4-yl]spiro[5,6-dihydrocyclopenta[b]thiophene-4,3′-azetidine]-3-carbonitrile] | 10 to 100 nM | 1000 to 10000 nM
N#Cc1c(N2C[C@H]3CC[C@@H](C2)N3)nc(OCC2(CN3CCC(F)(F)CC3)CC2)nc1N1CC2(CCc3sc(N)c(C#N)c32)C1 [Compound 34, 2-amino-1′-[5-cyano-6-(3,8-diazabicyclo[3.2.1]octan-3-yl)-2-[[1-[(4,4-difluoro-1-piperidyl)methyl]cyclopropyl]methoxy]pyrimidin-4-yl]spiro[5,6-dihydrocyclopenta[b]thiophene-4,3′-azetidine]-3-carbonitrile] | < 10 nM | 10 to 100 nM

Reference: patent US12145947B2, “Pyrimidine based modulators and uses thereof” (Quanta Therapeutics, Inc., priority 2022, dated 2024)
